Data set [1] can be described thus: Microsomial stability, rat. The class given is in vitro ADME. Conditions: rat liver microsomes, NADPH. The procedure: To define whether this prodrug was suitable for inhaled administration, CL27c was studied to evaluate selected ADME (absorption, distribution, metabolism, and excretion) and pharmacokinetic properties. First, stability of CL27c and CL27e was analyzed in mouse plasma (Supplementary Table 1) and in mouse, rat, and human liver microsomes in the presence of nicotinamide adenine dinucleotide phosphate (NADPH; Supplementary Table 2). Next, clearance of CL27c was analyzed in C57BL/6J mice after either intra-venous or oral administration. […] Clearance of CL27c and CL27e after oral administration could not be determined due to their low bioavailability (Supplementary Table 3). Next, pharmacokinetics after inhalation was studied in C57BL/6J mice after delivering an aerosolized micro-suspension of CL27c. As shown in Table 1 and Supplementary Fig. 1b, CL27c dose-dependently reached the lungs and its metabolite CL27e was detectable after inhalation of the highest dose. […] Therefore, the inhaled prodrug promotes local effects but prevents systemic absorption of pharmacologically relevant amounts of the active compound. […]
All tests for the microsomial stability of CL27c were conducted by the Istituto di Ricerche Biomediche (RBM) SpA – Merck Serono, Ivrea, Italy. […]
Then, cells […]
pretreated with different doses of CL27c were incubated at 37°C and 5% CO 2 for 10 minutes. […]

The subject of data set [2] is OVA-induced chronic allergic asthma. In words: OVA-induced chronic allergic asthma model. The class given is in vivo, BALB/c mice. The procedure:
BALF was performed to obtain leukocytes from alveolar space. The trachea was exposed and a 1.7-mm-outside-diameter polyethylene catheter was inserted. BAL was performed by washing the lungs three-times with three different 500 µl aliquots of PBS. BALF samples were centrifuged at 600 × g for 10 min at 4 °C on a histology glass slide and stained with Diff Quick (MICROPTIC, #DQ-ST). The number of leukocytes and differential counts of different population were obtained evaluating the percentage leukocyte populations over the total cell number.
Mice were anesthetized with a subcutaneous injection of ketamine and xylazine (130 mg/Kg ketamine and 8.5 mg/Kg xylazine) to maintain spontaneous breathing under anesthesia. Mice were tracheostomized, placed in a body plethysmograph and connected to a computer-controlled ventilator (Forced Pulmonary Maneuver System®, Buxco Research Systems©, Wilmington, North Carolina USA). First, an average breathing frequency of 160 breaths/min was imposed to the anesthetized animal by a pressure-controlled ventilation until a regular breathing pattern and complete expiration at each breathing cycle was obtained. Under mechanical respiration, respiratory flow and airway pressure were measured to compute dynamic compliance (Cdyn) and lung resistance (RL). To measure the TLC, pressure–volume maneuvers were performed, where lungs were inflated to a standard pressure of +30 cm H2O and then let slowly exhale until a negative pressure of −30 cm H2O was reached. To measure the FEV Fast-Flow Volume maneuvers was performed. In this maneuver, lungs were first inflated to +30 cm H2O (TLC) and, immediately, a negative pressure (−30 cm H2O) was applied in order to enforce expiration. To evaluate AHR, the same mice used in previous maneuvers (basal condition) received Metacholine, 1 mg/Kg (Acetyl-β-methylcholine chloride, A-2251, Sigma-Aldrich St.Louis, MO,USA) i.v., and 20 sec after, a new set of maneuvers were conducted to assess RL changes. Suboptimal maneuvers were rejected and for each test in every single mouse at least three acceptable maneuvers were conducted to obtain a reliable mean for all numeric parameters.
On day 1, BALB/c mice received systemic immunization by subcutaneous injection of 10 µg of chicken egg ovalbumin (OVA grade V, >98% pure; Sigma, St Louis, MO) diluted in 2 mg/mL Al(OH)3 followed by a booster injection at the day 14 (described in fig. 3). Nasal challenges were performed starting at the day 28, by inhalational exposure to aerosolised ovalbumin (1% ovalbumin in saline 0,9%) for 20 min per day, in alternated days during 16 days (day 28, 30, 32, 34, 36, 38, 40, 42 and 44). At the same time, mice received daily treatment from day 28 to 44 with CL27c (2 mg/ml dissolved in 0.5 % tylaxopol/saline solution, aerosolized for 30′) or vehicle (0.5% tyloxapol/saline solution, aerosolized for 30′), or dexamethasone (5 mg/kg i.p. injection). Untreated control groups included mice challenged with PBS alone. On day 45, mice were sacrificed, and samples were collected for further analysis.
IL-5, IL-13, eotaxin, TGF-β, KC, IL-17A, and MCP-1 levels in the BALF and anti-OVA IgE levels in serum were measured by ELISA technique using commercial DuoSet kits R&D Systems according to the instructions of the manufacturer. Results were expressed in levels of cytokines per ml of […] (pg/ml) or arbitrary units (A.U.).
The left lung was removed and fixed in 4% neutral phosphate-buffered formalin (pH 7.4)[10]. The tissues were dehydrated gradually in ethanol, embedded in paraffin, cut into 4 µm sections, stained with H&E, Gomori’s trichrome and periodic acid schiff (PAS), and examined under light microscopy by a pathologist in a double blinded manner. Images of lung sections were captured with a digital camera (Optronics DEI-470) connected to a microscope (Olympus IX70) with a magnification of ×40 or ×100. […]

Setting [3] is: CL27c 2 mg/ml aerosol or dexamethasone 5 mg/kg.
[4] abbreviates: aerosolized CL27c 2 mg/ml daily.

As to `COC(=O)c1cccc(Cn2cc(-c3cccc4c(=O)cc(N5CCOCC5)[nH]c34)nn2)c1` [CL27c], in data set [1], the “Clint (intrinsic clearance)” value amounted to 0.2 ± 0.005 ml/min/mg prot and the t1/2 was 5.9 ± 0.1 min. For the same compound, in data set [2] (setting [3]), the “accumulation of inflammatory cells in peribronchial and perivascular spaces” value was “significantly decreased”; the “lung function: lung resistance (RL) and dynamic compliance (Cdyn)” value was “normalize lung function”; the “peribronchial fibrosis (fibrotic airway remodeling)” value was “significantly reduced”. Further, the methacholine-evoked airway hyperresponsiveness result in data set [2] (aerosolized CL27c 2 mg/ml) is on record as “not able to modify methacholine-evoked airway hyperresponsiveness”. Further, in data set [2] (setting [4]), the “metaplasia of goblet cells and mucus production (PAS)” value is “prevented OVA-induced metaplasia of goblet cells and mucus production”; the “reduction of tissue levels of eosinophil peroxidase (EPO)” value was determined as 55%; the “reduction of tissue levels of myeloperoxidase (MPO)” value is on record as 50%. Besides, in data set [2] (repeated administration), the “Th2 mediators IL-5, IL-13, and Eotaxin” value is “lowering of Th2 mediators”.
